Results: patent US20130178523A1, “ANTI-CANCER COMPOSITIONS AND METHODS” (THE PENN STATE RESEARCH FOUNDATION, priority 2007, published 2013)

Columns and labels:
UACC 903 cells [1] = test: BrdU ELISA cellular proliferation; format: cell-based, human; details: 24 hours
Method: Proliferation rate is measured using a BrdU ELISA kit (Roche Applied Sciences, Indianapolis, Ind.).
BrdUrd is used to label cells for 4-6 hours. At 15 μM concentration, ISC-4 and ISC-6 reduced UACC 903 cellular proliferative potential by ˜80-90% compared to controls. Results represent the average of 3 independent experiments; bars represent SEM. The average value is represented as the percentage of control DMSO treated cells.

UACC 903 cells [2] = test: Apo-ONE caspase-3/7 apoptosis assay; format: cell-based, human; details: 24 hours
Method: Apoptosis rates are measured using an Apo-ONE Homogenous caspase-3/7 Assay kit (Promega Corporation, Madison, Wis.).
The isoselenocyanate compounds promote apoptosis in melanoma cells. […] The graphs in FIGS. 3A and 3B show fold increase in caspase-3/7 activity relative to DMSO vehicle treated cells on the x-axis. Results represent average of 3 independent experiments. Bars indicate SEM.

[3] = Toxicity assessments in nude mice (blood parameters, histology); format: in vivo
From the text: Animals are sacrificed by CO2 asphyxiation and blood collected from each animal in plasma separator tubes with lithium heparin (BD Microtainer, BD, Franklin Lakes, N.J.) following cardiac puncture and analyzed for AST (aspartate aminotransferase), ALT, (alanyl aminotransferase), alkaline phosphatase, glucose and creatinine to ascertain liver, heart, kidney and pancreas related toxicity. For morphological examination of blood cells, whole blood is collected in microtainer tubes containing K2EDTA (BD Microtainer, BD, Franklin Lakes, N.J.) and RBC, WBC, lymphocytes, monocytes, eosinophils, platelets, total hemoglobin and hematocrit percentage analyzed. Blood is also microscopically examined for segregates, polychromatin bodies, and smudge cells. A portion of liver, heart, kidney, spleen, intestine pancreas and adrenal from each animal is formalin fixed and paraffin-embedded to examine toxicity-related changes in cell or organ morphology by H&E staining.

UACC 903 cells [4] = test: Topical application on melanoma tumor growth in vivo; set-up: species or system mice; details: topical daily
Method: Chemopreventive or chemotherapeutic effect of ISC-4 on cutaneous tumor development is measured by subcutaneous injection of 1 million UACC 903 cells in 0.2 ml of DMEM −10% FBS above both the left and right rib cages of 4- to 6-week old female athymic nude mice using 24 g needles. […] The dimensions of the developing tumors are measured alternate days using calipers and the sizes estimated in cubic millimeters. A minimum of 5 mice per group is used for the topical treatment.
Chemopreventive or chemotherapeutic effect of ISC-4 on cutaneous tumor development is measured by subcutaneous injection of 1 million UACC 903 cells in 0.2 ml of DMEM −10% FBS above both the left and right rib cages of 4- to 6-week old female athymic nude mice using 24 g needles. 24 hours later, animals were treated daily with ISC-4 (12.5-50 μM), PBITC (12.5-50 μM), or vehicle control (acetone) for 3-4 weeks. The dimensions of the developing tumors are measured alternate days using calipers and the sizes estimated in cubic millimeters. A minimum of 5 mice per group was used for the topical treatment.

T-98-G = test: MTS assay, glioblastoma cells; details: Homo sapiens, T98G, 24 h
HT-1080 = test: MTS assay, fibrosarcoma cells; details: Homo sapiens, HT-1080, 24 h
Caco-2 = test: MTS assay, colon cancer cells; details: Homo sapiens, Caco-2, 24 h
MDA-MB-231 = test: MTS assay, breast cancer cells; details: Homo sapiens, MDA-MB-231, 24 h
WM115 melanoma cells = test: MTS cell viability assay, WM115; details: Homo sapiens, WM-115, 24 h
PC-3 = test: MTS assay, prostate cancer cells; details: Homo sapiens, PC-3, 24 h
1205 Lu melanoma cells = test: MTS cell viability assay, 1205 Lu; details: Homo sapiens, 24 h
[5] = tested on: normal human fibroblasts (FF2441); test: IC50 in normal human fibroblasts
UACC 903 melanoma cells [6] = test: MTS cell viability assay, UACC 903; details: Homo sapiens, UACC-903, 24 h
[7] = tested on: pAkt and downstream pPRAS40 in UACC 903 tumors; test: Western blot analysis of excised tumors; details: day 13, 0.76 μmoles i.p. alternate days, versus DMSO or PBITC
[8] = tested on: Akt signaling pathway in melanoma cell line WM115; test: Western blot, Akt signaling pathway in WM115; details: FIG. 10B
[9] = tested on: Akt signaling pathway in melanoma cell line 1205 Lu; test: Western blot, Akt signaling pathway in 1205 Lu; details: FIG. 10A
UACC 903 cells [10] = test: Cell cycle analysis (propidium iodide, FACScan); details: 24 hours
UACC 903 tumors = test: Proliferation/apoptosis rates in tumors (TUNEL, Ki-67)
[11] = tested on: GFP tagged UACC 903 human melanoma cells; test: Topical application on reconstructed human skin with melanoma cells; details: 12.5 and 25 μM topical; compared to DMSO treated or untreated skins
UACC 903 melanoma cells [12] = test: Tumor development in nude mice, subcutaneous UACC 903, i.p. treatment; details: 0.76 μmoles (3 ppm selenium) i.p. thrice per week; day 24; doses 3× lower than isothiocyanates
Akt signaling pathway = test: Western blot of Akt signaling pathway in cultured melanoma cells (FIG. 9); details: 24 hours

[Se]=C=NCCCCc1ccccc1 [ISC-4, Phenylbutyl Isoselenocyanate]
proliferative potential with increasing concentrations (UACC 903 cells [1]; 5, 10, 15 μM): decreased proliferative potential | fold more effective than PBITC or PHITC at inhibiting cellular proliferation (UACC 903 cells [1]; 5-15 μM): ~2 fold | cellular apoptosis with increasing concentrations (caspase-3/7 activity, words) (UACC 903 cells [2]; 5, 10, 15 μM): increase cellular apoptosis | fold more effective than PBITC at inducing apoptosis (UACC 903 cells [2]; caspase-3/7 activity, 5-15 μM): ~2 fold | blood SGOT, SGPT, alkaline phosphatase, glucose and creatinine ([3]; 0.76 μmoles i.p. 3 times per week for 3 weeks, compared to vehicle DMSO): did not alter parameters | histological examination of vital organ sections ([3]; hematoxylin and eosin stained, including the liver): did not significantly change cell morphology or organ structure | basal urea nitrogen (BUN), creatinine and glucose levels ([3]; treated versus control animals): not significantly different | systemic toxicity by body weight (UACC 903 cells [4]; 0.063-0.19 μmoles equivalent to 0.25-0.75 ppm): no systemic toxicity | tumor size (UACC 903 cells [4]; 0.063-0.19 μmoles equivalent to 0.25-0.75 ppm, versus vehicle or PBITC): decreased tumor size | systemic toxicity by body weight (UACC 903 cells [4]; 12.5-50 μM): no systemic toxicity | reduction of melanoma tumor development (UACC 903 cells [4]; 12.5-50 μM, compared to PBITC or vehicle control): ~50% | IC50 (T-98-G): 27 ± 1 µM | IC50 (HT-1080): 11 ± 1 µM | IC50 (Caco-2): 12 ± 3 µM | IC50 (MDA-MB-231): 21 µM | IC50 (WM115 melanoma cells): 7 µM | IC50 (PC-3): 19 ± 1 µM | IC50 (1205 Lu melanoma cells): 11 µM | fold greater sensitivity of melanoma cells (UACC 903) than normal fibroblasts (FF2441) ([5]; 24 hours): 3 fold | IC50 ([5]; Homo sapiens, FF2441, 24 h, read-out: IC50 (drug concentration required to kill fibroblasts)): 37.5 µM | IC50 (UACC 903 melanoma cells [6]): 12 ± 3 µM | expression of downstream PRAS40 (phosphorylated) in tumor lysates ([7]; p<0.001): significantly decreased expression | expression of phosphorylated (active) Akt in tumor lysates ([7]; p<0.05): significantly decreased expression | apoptosis indicated by cleaved PARP protein levels [8]: causes significant apoptosis | apoptosis indicated by cleaved PARP protein levels [9]: causes significant apoptosis | G0/G1 cell population (UACC 903 cells [10]; 5 μM): 59.4 | G2/M cell population (UACC 903 cells [10]; 5 μM): 16.3 | S cell population (UACC 903 cells [10]; 5 μM): 24.3 | subG0/G1 cell population (UACC 903 cells [10]; 5 μM): 2.9 | G0/G1 cell population (UACC 903 cells [10]; 10 μM): 41.6 | G2/M cell population (UACC 903 cells [10]; 10 μM): 29.4 | S cell population (UACC 903 cells [10]; 10 μM): 29.0 | subG0/G1 cell population (UACC 903 cells [10]; 10 μM): 12.3 | G0/G1 cell population (UACC 903 cells [10]; 15 μM): 35.5 | G2/M cell population (UACC 903 cells [10]; 15 μM): 28.0 | S cell population (UACC 903 cells [10]; 15 μM): 36.5 | subG0/G1 cell population (UACC 903 cells [10]; 15 μM): 22.8 | proliferating tumor cells (Ki-67, words) (UACC 903 tumors; compared to PBITC, size and time matched tumors): slightly fewer proliferating tumor cells | TUNEL positive (apoptotic) cells in tumors, fold versus DMSO or PBITC (UACC 903 tumors; tumors harvested at day 11 and 13, 3 ppm selenium i.p.): ~3 fold | decrease in tumor area occupied by melanoma cells [11]: ~80% | melanoma tumor volume (UACC 903 melanoma cells [12]): reduce tumor volume | concentration completely inhibiting the Akt3 pathway (Western blot) (Akt signaling pathway): 10 µM | level of apoptosis (cleaved PARP) versus PBITC (Akt signaling pathway): higher level of apoptosis
